Earlier results, collected in patent US20080020059A1, “COMPOSITIONS AND METHODS FOR TOPICAL TREATMENT OF SKIN INFECTION” (CHIOU CONSULTING, INC., priority 2003, published 2008).

Tested on: acne
Conditions: after 12 weeks of treatment

SMILES: CC[C@H]1OC(=O)[C@H](C)[C@@H](O[C@H]2C[C@@](C)(OC)[C@@H](O)[C@H](C)O2)[C@H](C)[C@@H](O[C@@H]2O[C@H](C)C[C@H](N(C)C)[C@H]2O)[C@](C)(O)C[C@@H](C)C(=O)[C@H](C)[C@@H](O)[C@]1(C)O [erythromycin]
- patients showing satisfactory responses: about 50%
